Results taken from PubChem BioAssay AID1745844 (Carcinogenic Potency Database (CPDB), 2022).
Calls of active or inactive are those of the source. The rule behind the calls is not given here.

Test system: rodent lifetime carcinogenesis bioassay, tumor incidence TD50
Experiment: chronic cancer bioassays in animals – CPDB, compiled studies (AID 1745844)

`Clc1cc2c(cc1Cl)Oc1cc(Cl)c(Cl)cc1O2` gave a TD50 (mouse, strain B6C3F1, females, by gavage, site: all sites, lesion: leukemia + lymphoma, dosed 104 weeks, study length 104 weeks) of 0.000709 mg/kg/day, a TD50 (mouse, strain B6C3F1, females, by gavage, site: all sites, lesion: lymphoma, histiocytic type, dosed 104 weeks, study length 104 weeks) of 0.000705 mg/kg/day and a TD50 (mouse, strain B6C3F1, females, by gavage, site: all sites, lesion: lymphoma, dosed 104 weeks, study length 104 weeks) of 0.000682 mg/kg/day. For the same molecule, the TD50 (mouse, strain B6C3F1, females, by gavage, site: any site (literature study), lesion: several types, types named in the paper, dosed 104 weeks, study length 104 weeks) was 0.000494 mg/kg/day, the TD50 (mouse, strain B6C3F1, females, by gavage, site: liver + thyroid gland, lesion: hepatocellular adenoma + hepatocellular carcinoma + follicular-cell adenoma, dosed 104 weeks, study length 104 weeks) was 0.000526 mg/kg/day and the TD50 (mouse, strain B6C3F1, females, by gavage, site: liver, lesion: hepatocellular adenoma + hepatocellular carcinoma + neoplastic nodule, dosed 104 weeks, study length 104 weeks) was 0.000756 mg/kg/day. The TD50 (mouse, strain B6C3F1, females, by gavage, site: liver, lesion: hepatocellular adenoma + hepatocellular carcinoma, dosed 104 weeks, study length 104 weeks) was 0.000756 mg/kg/day, the TD50 (mouse, strain B6C3F1, females, by gavage, site: liver, lesion: hepatocellular carcinoma, dosed 104 weeks, study length 104 weeks) was 0.0013 mg/kg/day and the TD50 (mouse, strain B6C3F1, females, by gavage, site: subcutaneous tissue, lesion: fibrosarcoma, dosed 104 weeks, study length 104 weeks) was 0.00172 mg/kg/day. For the same molecule, the TD50 (mouse, strain B6C3F1, females, by gavage, site: thyroid gland, lesion: follicular-cell adenoma, dosed 104 weeks, study length 104 weeks) was 0.00159 mg/kg/day, the TD50 (mouse, strain B6C3F1, males, by gavage, site: any site (literature study), lesion: several types, types named in the paper, dosed 104 weeks, study length 104 weeks) was 0.000141 mg/kg/day and the TD50 (mouse, strain B6C3F1, males, by gavage, site: liver, lesion: hepatocellular adenoma + hepatocellular carcinoma + neoplastic nodule, dosed 104 weeks, study length 104 weeks) was 8.68e-05 mg/kg/day. It also gave a TD50 (mouse, strain B6C3F1, males, by gavage, site: liver, lesion: hepatocellular adenoma + hepatocellular carcinoma, dosed 104 weeks, study length 104 weeks) of 8.68e-05 mg/kg/day, a TD50 (mouse, strain B6C3F1, males, by gavage, site: liver, lesion: hepatocellular adenoma, dosed 104 weeks, study length 104 weeks) of 0.000271 mg/kg/day and a TD50 (mouse, strain B6C3F1, males, by gavage, site: liver, lesion: hepatocellular carcinoma, dosed 104 weeks, study length 104 weeks) of 0.000147 mg/kg/day. The TD50 (mouse, strain B6C3F1, males, by gavage, site: lung, lesion: alveolar/bronchiolar adenoma + alveolar/bronchiolar carcinoma, dosed 104 weeks, study length 104 weeks) was 0.000198 mg/kg/day, the TD50 (mouse, strain B6C3F1, males, by gavage, site: lung, lesion: alveolar/bronchiolar adenoma, dosed 104 weeks, study length 104 weeks) was 0.000219 mg/kg/day and the carcinogen call (mouse, strain Swiss/H/Riop, males, by gavage, site: liver, lesion: several types, types named in the paper, dosed 52 weeks, study length 104 weeks) was “positive”. For the same molecule, the carcinogen call (mouse, strain Swiss/H/Riop, males, by gavage, site: lung, lesion: one or several types, types not named, dosed 52 weeks, study length 104 weeks) was “negative (inactive)”, the TD50 (rat, strain Osborne-Mendel, females, by gavage, site: any site (literature study), lesion: several types, types named in the paper, dosed 104 weeks, study length 105 weeks) was 0.00158 mg/kg/day and the TD50 (rat, strain Osborne-Mendel, females, by gavage, site: liver, lesion: hepatocellular adenoma + hepatocellular carcinoma + neoplastic nodule, dosed 104 weeks, study length 105 weeks) was 0.000127 mg/kg/day. For the same molecule, the TD50 (rat, strain Osborne-Mendel, females, by gavage, site: liver, lesion: hepatocellular carcinoma + neoplastic nodule, dosed 104 weeks, study length 105 weeks) was 0.000127 mg/kg/day, the TD50 (rat, strain Osborne-Mendel, females, by gavage, site: liver, lesion: neoplastic nodule, dosed 104 weeks, study length 105 weeks) was 0.000154 mg/kg/day and the TD50 (rat, strain Osborne-Mendel, males, by gavage, site: adrenal gland, lesion: cortical adenoma, dosed 104 weeks, study length 105 weeks) was 1.21e-05 mg/kg/day. The TD50 (rat, strain Osborne-Mendel, males, by gavage, site: any site (literature study), lesion: several types, types named in the paper, dosed 104 weeks, study length 105 weeks) was 0.000133 mg/kg/day, the TD50 (rat, strain Osborne-Mendel, males, by gavage, site: liver, lesion: hepatocellular adenoma + hepatocellular carcinoma + neoplastic nodule, dosed 104 weeks, study length 105 weeks) was 0.000391 mg/kg/day and the TD50 (rat, strain Osborne-Mendel, males, by gavage, site: liver, lesion: hepatocellular carcinoma + neoplastic nodule, dosed 104 weeks, study length 105 weeks) was 0.000391 mg/kg/day. The TD50 (rat, strain Osborne-Mendel, males, by gavage, site: liver, lesion: neoplastic nodule, dosed 104 weeks, study length 105 weeks) was 0.000391 mg/kg/day, the TD50 (rat, strain Osborne-Mendel, males, by gavage, site: subcutaneous tissue, lesion: fibroma, dosed 104 weeks, study length 105 weeks) was 0.000169 mg/kg/day and the TD50 (rat, strain Osborne-Mendel, males, by gavage, site: thyroid gland, lesion: follicular-cell adenoma + follicular-cell carcinoma, dosed 104 weeks, study length 105 weeks) was 0.000101 mg/kg/day. The TD50 (rat, strain Osborne-Mendel, males, by gavage, site: thyroid gland, lesion: follicular-cell adenoma, dosed 104 weeks, study length 105 weeks) was 0.000113 mg/kg/day, the TD50 (rat, strain Sprague-Dawley Spartan, females, in feed, site: hard palate/nasal turbinates, lesion: squamous-cell carcinoma, stratified, dosed 103 weeks, study length 103 weeks) was 0.000205 mg/kg/day and the TD50 (rat, strain Sprague-Dawley Spartan, females, in feed, site: liver, lesion: hepatocellular carcinoma, dosed 103 weeks, study length 103 weeks) was 6.51e-05 mg/kg/day. It also gave a TD50 (rat, strain Sprague-Dawley Spartan, females, in feed, site: liver, lesion: hepatocellular hyperplastic nodule, dosed 103 weeks, study length 103 weeks) of 6.67e-06 mg/kg/day, a TD50 (rat, strain Sprague-Dawley Spartan, females, in feed, site: liver, lesion: several types, types named in the paper, dosed 103 weeks, study length 103 weeks) of 1.49e-05 mg/kg/day and a TD50 (rat, strain Sprague-Dawley Spartan, females, in feed, site: lung, lesion: squamous-cell carcinoma, keratinized, dosed 103 weeks, study length 103 weeks) of 0.000192 mg/kg/day. It also gave a TD50 (rat, strain Sprague-Dawley Spartan, males, in feed, site: adrenal gland, lesion: cortical adenoma, dosed 103 weeks, study length 103 weeks) of 0.000217 mg/kg/day, a TD50 (rat, strain Sprague-Dawley Spartan, males, in feed, site: hard palate/nasal turbinates, lesion: squamous-cell carcinoma, stratified, dosed 103 weeks, study length 103 weeks) of 0.000393 mg/kg/day and a TD50 (rat, strain Sprague-Dawley Spartan, males, in feed, site: tongue, lesion: squamous-cell carcinoma, stratified, dosed 103 weeks, study length 103 weeks) of 0.000628 mg/kg/day. The TD50 (rat, strain Sprague-Dawley, males, in feed, site: liver, lesion: several types, types named in the paper, dosed 78 weeks, study length 95 weeks) was 8.31e-05 mg/kg/day and the TD50 (rat, strain Sprague-Dawley, males, in feed, site: lung, lesion: squamous-cell tumor, dosed 78 weeks, study length 95 weeks) was 7.96e-05 mg/kg/day.

With `[Cl][Hg]` the carcinogen call (mouse, strain BALB/c, males, in feed, site: liver, lesion: one or several types, types not named, dosed 60 weeks, study length 104 weeks) was “negative (inactive)” and the carcinogen call (mouse, strain BALB/c, males, in feed, site: lung, lesion: one or several types, types not named, dosed 60 weeks, study length 104 weeks) was “negative (inactive)”.

In the case of `Cc1cc(O)c(C(C)(C)C)cc1Sc1cc(C(C)(C)C)c(O)cc1C`, the TD50 (mouse, strain B6C3F1, females, in feed, site: any site (literature study), lesion: several types, types named in the paper, dosed 104 weeks, study length 104 weeks) is reported as 484 mg/kg/day (inactive), the TD50 (mouse, strain B6C3F1, females, in feed, site: lung, lesion: alveolar/bronchiolar adenoma + alveolar/bronchiolar carcinoma, dosed 104 weeks, study length 104 weeks) is reported as 2020 mg/kg/day and the carcinogen call (mouse, strain B6C3F1, males, in feed, site: any site (literature study), lesion: several types, types named in the paper, dosed 104 weeks, study length 104 weeks) is reported as “negative (inactive)”. For the same molecule, the TD50 (rat, strain Fischer 344, females, in feed, site: any site (literature study), lesion: several types, types named in the paper, dosed 104 weeks, study length 104 weeks) was 196 mg/kg/day, the TD50 (rat, strain Fischer 344, females, in feed, site: liver, lesion: hepatocellular adenoma + hepatoblastoma + hepatocellular carcinoma, dosed 104 weeks, study length 104 weeks) was 3990 mg/kg/day and the TD50 (rat, strain Fischer 344, females, in feed, site: thyroid gland, lesion: c-cell adenoma + c-cell adenoma, bilateral, dosed 104 weeks, study length 104 weeks) was 361 mg/kg/day. The TD50 (rat, strain Fischer 344, females, in feed, site: thyroid gland, lesion: c-cell adenoma + c-cell carcinoma + c-cell adenoma, bilateral, dosed 104 weeks, study length 104 weeks) was 325 mg/kg/day, the TD50 (rat, strain Fischer 344, females, in feed, site: uterus, lesion: endometrial stromal polyp + endometrial stromal sarcoma, dosed 104 weeks, study length 104 weeks) was 262 mg/kg/day (inactive) and the TD50 (rat, strain Fischer 344, females, in feed, site: uterus, lesion: endometrial stromal polyp, dosed 104 weeks, study length 104 weeks) was 286 mg/kg/day. For the same molecule, the TD50 (rat, strain Fischer 344, males, in feed, site: any site (literature study), lesion: several types, types named in the paper, dosed 104 weeks, study length 104 weeks) was 449 mg/kg/day (inactive) and the TD50 (rat, strain Fischer 344, males, in feed, site: liver, lesion: hepatocellular adenoma + hepatoblastoma + hepatocellular carcinoma, dosed 104 weeks, study length 104 weeks) was 324 mg/kg/day.

`COP(=O)(OC)OC` gave a TD50 (mouse, strain B6C3F1, females, by gavage, site: any site (literature study), lesion: several types, types named in the paper, dosed 103 weeks, study length 103 weeks) of 385 mg/kg/day, a TD50 (mouse, strain B6C3F1, females, by gavage, site: liver, lesion: hepatocellular adenoma + hepatocellular carcinoma + neoplastic nodule, dosed 103 weeks, study length 103 weeks) of 6390 mg/kg/day and a TD50 (mouse, strain B6C3F1, females, by gavage, site: lung, lesion: alveolar/bronchiolar adenoma + alveolar/bronchiolar carcinoma, dosed 103 weeks, study length 103 weeks) of 3900 mg/kg/day. For the same molecule, the TD50 (mouse, strain B6C3F1, females, by gavage, site: uterus, endometrium, lesion: adenocarcinoma, NOS, dosed 103 weeks, study length 103 weeks) was 335 mg/kg/day, the carcinogen call (mouse, strain B6C3F1, males, by gavage, site: any site (literature study), lesion: several types, types named in the paper, dosed 103 weeks, study length 103 weeks) was “negative (inactive)” and the TD50 (mouse, strain B6C3F1, males, by gavage, site: lung, lesion: alveolar/bronchiolar adenoma + alveolar/bronchiolar carcinoma, dosed 103 weeks, study length 103 weeks) was 61300 mg/kg/day. For the same molecule, the carcinogen call (rat, strain BOR:WISW (Wistar), females, in drinking water, site: any site (literature study), lesion: one or several types, types not named, dosed 52 weeks, study length 52 weeks) was “negative (inactive)”, the carcinogen call (rat, strain BOR:WISW (Wistar), females, in drinking water, site: any site (literature study), lesion: several types, types named in the paper, dosed 118 weeks, study length 128 weeks) was “negative (inactive)” and the carcinogen call (rat, strain BOR:WISW (Wistar), females, in drinking water, site: liver, lesion: hepatoma, dosed 118 weeks, study length 128 weeks) was “negative (inactive)”. The carcinogen call (rat, strain BOR:WISW (Wistar), males, in drinking water, site: any site (literature study), lesion: one or several types, types not named, dosed 52 weeks, study length 52 weeks) was “negative (inactive)”, the carcinogen call (rat, strain BOR:WISW (Wistar), males, in drinking water, site: any site (literature study), lesion: several types, types named in the paper, dosed 118 weeks, study length 128 weeks) was “negative (inactive)” and the carcinogen call (rat, strain BOR:WISW (Wistar), males, in drinking water, site: liver, lesion: hepatoma, dosed 118 weeks, study length 128 weeks) was “negative (inactive)”. For the same molecule, the TD50 (rat, strain Fischer 344, females, by gavage, site: any site (literature study), lesion: several types, types named in the paper, dosed 104 weeks, study length 105 weeks) was 73 mg/kg/day (inactive), the TD50 (rat, strain Fischer 344, males, by gavage, site: any site (literature study), lesion: several types, types named in the paper, dosed 104 weeks, study length 105 weeks) was 54.5 mg/kg/day and the TD50 (rat, strain Fischer 344, males, by gavage, site: liver, lesion: hepatocellular adenoma + hepatocellular carcinoma + neoplastic nodule, dosed 104 weeks, study length 105 weeks) was 485 mg/kg/day. It also gave a TD50 (rat, strain Fischer 344, males, by gavage, site: subcutaneous tissue, lesion: fibroma, dosed 104 weeks, study length 105 weeks) of 123 mg/kg/day.

Molecule `CCCCCN(N=O)C(=O)OCC` has a TD50 (rat, strain Donryu, females, in drinking water, site: any site (literature study), lesion: several types, types named in the paper, dosed 52 weeks, study length 60 weeks) of 0.336 mg/kg/day, a TD50 (rat, strain Donryu, females, in drinking water, site: esophagus, lesion: papilloma, dosed 52 weeks, study length 60 weeks) of 1.46 mg/kg/day and a TD50 (rat, strain Donryu, females, in drinking water, site: esophagus, lesion: squamous-cell carcinoma, dosed 52 weeks, study length 60 weeks) of 1.01 mg/kg/day. For the same molecule, the TD50 (rat, strain Donryu, females, in drinking water, site: forestomach, lesion: papilloma, dosed 52 weeks, study length 60 weeks) was 1.54 mg/kg/day, the TD50 (rat, strain Donryu, females, in drinking water, site: forestomach, lesion: squamous-cell carcinoma, dosed 52 weeks, study length 60 weeks) was 2.81 mg/kg/day and the TD50 (rat, strain Donryu, females, in drinking water, site: several sites, sites named in the paper, lesion: papilloma, dosed 52 weeks, study length 60 weeks) was 1.7 mg/kg/day. The TD50 (rat, strain Donryu, females, in drinking water, site: several sites, sites named in the paper, lesion: squamous-cell carcinoma, dosed 52 weeks, study length 60 weeks) was 1.09 mg/kg/day.
